In US11680056B2, “MK2 inhibitors and uses thereof” (Xinthera, Inc., priority 2021, dated 2023):
Like-named read-outs stand apart in the source and are kept apart here.

Experiments:
[1] = biological target: p38a/PRAK (Homo sapiens (Human), UniProt Q16539); assay: p38a/PRAK biochemical assay: activation of PRAK by p38, FITC-HSP27 peptide phosphorylation (IMAP FP); conditions: 10-point 1:3 dilution, top dose 300 μM; 60 pM active p38a, 1 nM inactive PRAK, 10 μM ATP, 2 h incubation; read-out: p38a/PRAK Enzyme pIC50 (converted)
Outline: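 GST-tagged MK2 (F46–H400) and PRAK (M1–Q471), expressed in E. coli, activated by p38 and phosphorylate FITC-HSP27 peptide over 2 h with compound; readout by IMAP fluorescence polarisation (ex 485/em 528 nm). Ten-point 1:3 dilutions, top dose 1 μM for MK2 and 300 μM for PRAK. IC50 after vehicle normalisation; selectivity = IC50(PRAK)/IC50(MK2).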

[2] = biological target: p38a/MK2 (Homo sapiens (Human), UniProt P49137+Q16539); assay: p38a/MK2 biochemical assay: activation of MK2 by p38, FITC-HSP27 peptide phosphorylation (IMAP FP); conditions: 10-point 1:3 dilution, 60 pM active p38a, 1 nM inactive MK2, 10 μM ATP, 2 h incubation
[3] = top dose 1 μM, read-out: p38a/MK2 (1 μM) Enzyme pIC50 (converted)
[4] = top dose 10 μM, read-out: p38a/MK2 (10 μM) Enzyme pIC50 (converted)

Sequence of p38a/MK2 (P49137 46-400): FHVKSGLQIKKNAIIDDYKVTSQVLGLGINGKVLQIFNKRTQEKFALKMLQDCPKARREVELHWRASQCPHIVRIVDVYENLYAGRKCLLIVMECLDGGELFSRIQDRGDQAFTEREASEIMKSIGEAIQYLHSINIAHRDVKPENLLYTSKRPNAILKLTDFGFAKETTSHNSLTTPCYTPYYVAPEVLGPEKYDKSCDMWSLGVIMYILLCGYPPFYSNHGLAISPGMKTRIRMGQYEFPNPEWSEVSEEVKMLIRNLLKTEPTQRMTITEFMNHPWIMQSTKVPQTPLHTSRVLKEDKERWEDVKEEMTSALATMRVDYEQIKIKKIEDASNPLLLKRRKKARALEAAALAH
Sequence of p38a/MK2 (Q16539 whole entry): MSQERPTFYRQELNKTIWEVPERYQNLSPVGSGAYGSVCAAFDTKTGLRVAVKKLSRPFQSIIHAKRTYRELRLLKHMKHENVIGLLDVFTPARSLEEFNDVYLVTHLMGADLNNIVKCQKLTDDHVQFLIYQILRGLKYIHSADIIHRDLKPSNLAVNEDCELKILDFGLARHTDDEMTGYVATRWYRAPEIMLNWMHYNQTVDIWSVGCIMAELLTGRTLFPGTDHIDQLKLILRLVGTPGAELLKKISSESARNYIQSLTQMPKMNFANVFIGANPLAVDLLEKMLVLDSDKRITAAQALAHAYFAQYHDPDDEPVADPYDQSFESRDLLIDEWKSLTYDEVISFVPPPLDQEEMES
Sequence of p38a/PRAK (Q16539 whole entry): as above

SMILES	IC50 [1]	IC50 [2, 3]	IC50 [2, 4]	p38a/MK2 (10 μM) Enzyme pIC50 ([2]; top dose 10 μM)
Cc1cnc(-c2ccnc(C3(O)CCOCC3)n2)cc1-n1c(C)cc(OCc2ncc(F)cc2F)c(Cl)c1=O (single isomer, unassigned) [Example 39B, rel-3-chloro-4-((3,5-difluoropyridin-2-yl)methoxy)-2′-(2-(4-hydroxytetrahydro-2H-pyran-4-yl)pyrimidin-4-yl)-5′,6-dimethyl-2H-[1,4′-bipyridin]-2-one]	> 316000 nM	> 1000 nM		
Cc1cnc(-c2ccnc([C@](C)(O)C3CC3)n2)cc1-n1c(C)cc(OCc2ncc(F)cc2F)c(Cl)c1=O (single isomer, unassigned) [Example 6B, rel-3-chloro-2′-[2-(1-cyclopropyl-1-hydroxyethyl)pyrimidin-4-yl]-4-[(3,5-difluoropyridin-2-yl)methoxy]-5′,6-dimethyl-[1,4′-bipyridin]-2-one]	10000 nM	5.01 nM		
Cc1cnc(-c2ccnc(C(C)(C)C(F)F)n2)cc1-n1c(C)cc(OCc2ncc(F)cc2F)c(Cl)c1=O (single isomer, unassigned) [Example 5B, rel-3-chloro-2′-[2-(1,1-difluoro-2-methylpropan-2-yl)pyrimidin-4-yl]-4-[(3,5-difluoropyridin-2-yl)methoxy]-5′,6-dimethyl-[1,4′-bipyridin]-2-one]	> 316000 nM		2000 nM	
Cc1cnc(-n2ccc(CC(C)(C)O)n2)cc1-n1c(C)cc(OCc2ncc(F)cc2F)c(Cl)c1=O (single isomer, unassigned) [Example 46B, rel-3-chloro-4-[(3,5-difluoropyridin-2-yl)methoxy]-2′-[3-(2-hydroxy-2-methylpropyl)pyrazol-1-yl]-5′,6-dimethyl-[1,4′-bipyridin]-2-one]	> 316000 nM	> 1000 nM		
Cc1cnc(-c2ccnc(C(C)(C)CO)n2)cc1-n1c(C)cc(OCc2ncc(F)cc2F)c(Cl)c1=O (single isomer, unassigned) [Example 4A, rel-3-chloro-4-[(3,5-difluoropyridin-2-yl)methoxy]-2′-[2-(1-hydroxy-2-methylpropan-2-yl)pyrimidin-4-yl]-5′,6-dimethyl-[1,4′-bipyridin]-2-one]	3980 nM	1.58 nM		
Cc1cnc(-n2ccc(C(C)(C)O)n2)c(F)c1-n1c(C)cc(OCc2ncc(F)cc2F)c(Cl)c1=O (single isomer, unassigned) [Example 54B, rel-3-chloro-4-((3,5-difluoropyridin-2-yl)methoxy)-3′-fluoro-2′-(3-(2-hydroxypropan-2-yl)-1H-pyrazol-1-yl)-5′,6-dimethyl-2H-[1,4′-bipyridin]-2-one]	1580 nM	0.631 nM		
Cc1cnc(-c2nc(C(C)(C)O)cs2)cc1-n1c(C)cc(OCc2ncc(F)cc2F)c(Cl)c1=O (atropisomer, axis not shown) [Example 2, 3-chloro-4-[(3,5-difluoropyridin-2-yl)methoxy]-2′-[4-(2-hydroxypropan-2-yl)-1,3-thiazol-2-yl]-5′,6-dimethyl-[1,4′-bipyridin]-2-one]	3980 nM			7.5
Cc1cnc(-c2ccnc(CC3(O)CC3)n2)cc1-n1c(C)cc(OCc2ncc(F)cc2F)c(Cl)c1=O (single isomer, unassigned) [Example 48B, rel-3-chloro-4-[(3,5-difluoropyridin-2-yl)methoxy]-2′-{2-[(1-hydroxycyclopropyl)methyl]pyrimidin-4-yl}-5′,6-dimethyl-[1,4′-bipyridin]-2-one]	> 316000 nM	> 1000 nM		
Cc1cnc(-c2ccnc(N(C)CCO)n2)cc1-n1c(C)cc(OCc2ncc(F)cc2F)c(Cl)c1=O (single isomer, unassigned) [Example 43A, rel-3-chloro-4-[(3,5-difluoropyridin-2-yl)methoxy]-2′-{2-[(2-hydroxyethyl)(methyl)amino]pyrimidin-4-yl}-5′,6-dimethyl-[1,4′-bipyridin]-2-one]	2510 nM	12.6 nM		
Cc1cnc(-c2ccnc(C(C)(C)O)n2)c(C)c1-n1c(C)cc(OCc2ncc(F)cc2F)c(Cl)c1=O (single isomer, unassigned) [Example 49A, rel-3-chloro-4-((3,5-difluoropyridin-2-yl)methoxy)-2′-(2-(2-hydroxypropan-2-yl)pyrimidin-4-yl)-3′,5′,6-trimethyl-2H-[1,4′-bipyridin]-2-one]	3160 nM	6.31 nM		
Cc1cnc(-c2ccnc(C(C)(C)O)n2)c(F)c1-n1c(C)cc(OCc2ncc(F)cc2F)c(Cl)c1=O (single isomer, unassigned) [Example 53A, rel-3-chloro-4-[(3,5-difluoropyridin-2-yl)methoxy]-3′-fluoro-2′-[2-(2-hydroxypropan-2-yl)pyrimidin-4-yl]-5′,6-dimethyl-[1,4′-bipyridin]-2-one]	> 316000 nM	> 1000 nM		
COc1cnc(-c2ccnc(C(C)(C)O)n2)cc1-n1c(C)cc(OCc2ncc(F)cc2F)c(Cl)c1=O (atropisomer, axis not shown) [Example 7, 3-chloro-4-[(3,5-difluoropyridin-2-yl)methoxy]-2′-[2-(2-hydroxypropan-2-yl)pyrimidin-4-yl]-5′-methoxy-6-methyl-[1,4′-bipyridin]-2-one]	63100 nM		501 nM	
Cc1cnc(-c2nc(C(C)(C)O)ncc2C2CC2)cc1-n1c(C)cc(OCc2ncc(F)cc2F)c(Cl)c1=O (single isomer, unassigned) [Example 31A, rel-3-chloro-2′-(5-cyclopropyl-2-(2-hydroxypropan-2-yl)pyrimidin-4-yl)-4-((3,5-difluoropyridin-2-yl)methoxy)-5′,6-dimethyl-2H-[1,4′-bipyridin]-2-one]	3160 nM		2000 nM	
Cc1cnc(-n2ccc(C(C)(C)O)n2)cc1-n1c(C)cc(OCc2ncc(F)cc2Cl)c(Cl)c1=O (single isomer, unassigned) [Example 47A, rel-3-chloro-4-[(3-chloro-5-fluoropyridin-2-yl)methoxy]-2′-[3-(2-hydroxypropan-2-yl)pyrazol-1-yl]-5′,6-dimethyl-[1,4′-bipyridin]-2-one]	5010 nM	2 nM		
Cc1cnc(-c2ccnc(C3(O)CC3)n2)cc1-n1c(C)cc(OCc2ncc(F)cc2F)c(Cl)c1=O (single isomer, unassigned) [Example 3B, rel-3-chloro-4-[(3,5-difluoropyridin-2-yl)methoxy]-2′-[2-(1-hydroxycyclopropyl)pyrimidin-4-yl]-5′,6-dimethyl-[1,4′-bipyridin]-2-one]	> 316000 nM		> 10000 nM	
Cc1cnc(-c2cccc(C(C)(C)O)[n+]2[O-])c(F)c1-n1c(C)cc(OCc2ncc(F)cc2F)c(Cl)c1=O (single isomer, unassigned) [Example 62A, rel-3-chloro-4-((3,5-difluoropyridin-2-yl)methoxy)-3′-fluoro-6″-(2-hydroxypropan-2-yl)-5′,6-dimethyl-2-oxo-2H-[1,4′:2′,2″-terpyridine] 1″-oxide]	794 nM	1.58 nM		
Cc1cnc(-c2ccnc(C(C)(C)O)n2)cc1-n1c(C)cc(COc2ncc(F)cc2F)c(Cl)c1=O (atropisomer, axis not shown) [Example 15, 3-chloro-4-{[(3,5-difluoropyridin-2-yl)oxy]methyl}-2′-[2-(2-hydroxypropan-2-yl)pyrimidin-4-yl]-5′,6-dimethyl-[1,4′-bipyridin]-2-one]	158000 nM			5.4
[2H]C([2H])(Oc1cc(C)n(-c2c(C)cnc(-c3ccnc(C(C)(C)O)n3)c2F)c(=O)c1Cl)c1ncc(F)cc1F (single isomer, unassigned) [Example 57A, rel-3-chloro-4-[(3,5-difluoropyridin-2-yl)(2H2)methoxy]-3′-fluoro-2′-[2-(2-hydroxypropan-2-yl)pyrimidin-4-yl]-5′,6-dimethyl-[1,4′-bipyridin]-2-one]	794 nM	1.26 nM		
Cc1cnc(-c2ccc(F)c(C(C)(C)O)n2)cc1-n1c(C)cc(OCc2ncc(F)cc2F)c(Cl)c1=O (single isomer, unassigned) [Example 24B, rel-3-chloro-4-[(3,5-difluoropyridin-2-yl)methoxy]-1-[5′-fluoro-6′-(2-hydroxypropan-2-yl)-5-methyl-[2,2′-bipyridin]-4-yl]-6-methylpyridin-2-one]	> 316000 nM		1580 nM	
Cc1cnc(-c2ccnc(C(C)(C)O)n2)c(C)c1-n1c(C)cc(OCc2ncc(F)cc2F)c(Cl)c1=O (single isomer, unassigned) [Example 49B, rel-3-chloro-4-((3,5-difluoropyridin-2-yl)methoxy)-2′-(2-(2-hydroxypropan-2-yl)pyrimidin-4-yl)-3′,5′,6-trimethyl-2H-[1,4′-bipyridin]-2-one]	> 316000 nM	> 1000 nM		
Cc1cnc(-c2ccnc(C3(O)CCC3)n2)cc1-n1c(C)cc(OCc2ncc(F)cc2F)c(Cl)c1=O (single isomer, unassigned) [Example 41B, rel-3-chloro-4-[(3,5-difluoropyridin-2-yl)methoxy]-2′-[2-(1-hydroxycyclobutyl)pyrimidin-4-yl]-5′,6-dimethyl-[1,4′-bipyridin]-2-one]	> 316000 nM	> 1000 nM		
